{
  "source": "patent US20050065064A1",
  "about": "“Identification of allosteric peptide agonists of CXCR4” (priority 2002, published 2005)",
  "key": {"CXCR4 [1]": {"test_system": "CXCR4", "experiment": "β-galactosidase assay in yeast expressing CXCR4 (FUS1-lacZ reporter)", "assay_type": "cell-based, human", "conditions": "yeast lacking CXCR4; data not shown", "description": "The initial S. cerevisiae strain was CY12946 (MATα FUS1p-HIS3 GPA1Gαi2(5) canI farIΔI442 his3 leu2 sst2Δ2 ste14::trp1::LYS2 ste3Δ1156 tbt1-1 trp1 ura3) (23). Except for the specific chimeric Ga subunit expressed, CY12946 is genetically similar to CY1141, reported in Klein et al. (18), with two differences. First, the two strains express different Gα subunits. Specifically, CY12946 expresses a chimeric Gα subunit (GPA1Gαi2(5)) in which the C-terminal 5 amino acids of the yeast Ga subunit, GPA1, are replaced by the C-terminal 5 residues of Gαi2. In contrast, as described by Klein et al. (18), CY1141 expresses a chimeric Ga subunit (GPA1(41)Gαi2) in which the N-terminal 33 residues of Gαi2 are replaced by the 41 N-terminal residues of GPA1. We have used CY12946 in the current report because GPA1Gαi2(5) is more efficient than GPA1(41)Gαi2 in coupling CXCR4 to the pheromone response pathway. The use of GPA1Gαi2(5) necessitated deletion of SST2, which down-regulates the pheromone response pathway by accelerating the GTPase activity of GPA1. Thus, the second difference between CY12946 and CY1141 is the presence of an sst2 deletion allele in CY12946. All plasmids were 2μ-derived and contained a REP3 element for autonomous replication in S. cerevisiae and AmPR for selection in Escherichia coli. […]"}, "CXCR4 [2]": {"molecular_target": "T1, CXCR4 (Homo sapiens, UniProt P61073)", "experiment": "β-galactosidase assay in yeast expressing CXCR4 (FUS1-lacZ reporter)", "assay_type": "cell-based", "parameters": "The plasmid Cp4181 contains the CXCR4 gene under the control of the constitutive phosphoglycerate kinase (PGK1) promoter; expressed in transfected cells; host or cells: Saccharomyces cerevisiae CY12946 derivatives YAS2 / YAS3 (plasmid Cp4181)", "description": "The initial S. cerevisiae strain was CY12946 (MATα FUS1p-HIS3 GPA1Gαi2(5) canI farIΔI442 his3 leu2 sst2Δ2 ste14::trp1::LYS2 ste3Δ1156 tbt1-1 trp1 ura3) (23). Except for the specific chimeric Ga subunit expressed, CY12946 is genetically similar to CY1141, reported in Klein et al. (18), with two differences. First, the two strains express different Gα subunits. Specifically, CY12946 expresses a chimeric Gα subunit (GPA1Gαi2(5)) in which the C-terminal 5 amino acids of the yeast Ga subunit, GPA1, are replaced by the C-terminal 5 residues of Gαi2. In contrast, as described by Klein et al. (18), CY1141 expresses a chimeric Ga subunit (GPA1(41)Gαi2) in which the N-terminal 33 residues of Gαi2 are replaced by the 41 N-terminal residues of GPA1. We have used CY12946 in the current report because GPA1Gαi2(5) is more efficient than GPA1(41)Gαi2 in coupling CXCR4 to the pheromone response pathway. The use of GPA1Gαi2(5) necessitated deletion of SST2, which down-regulates the pheromone response pathway by accelerating the GTPase activity of GPA1. Thus, the second difference between CY12946 and CY1141 is the presence of an sst2 deletion allele in CY12946. All plasmids were 2μ-derived and contained a REP3 element for autonomous replication in S. cerevisiae and AmPR for selection in Escherichia coli. The plasmid Cp4181 contains the CXCR4 gene under the control of the constitutive phosphoglycerate kinase (PGK1) promoter and a LEU2 selectable marker. […] It also contains the TRP1 selectable marker. Cp6160 expresses full length wild-type SDF-1α in yeast under the control of the constitutive alcohol dehydrogenase (ADH1) promoter. The α-factor signal sequence is cloned at the 5′-end of the SDF sequence to allow secretion of the mature polypeptide. The vector also has the URA3 selectable marker allowing transformed cells to grow in media deficient in uracil. For expression of the 17-mer peptide library, Cp6293 was used. This URA3+plasmid was derived from Cp6160 and contains a frameshift in the SDF-1α sequence so that no functional protein is expressed unless an insert is appropriately cloned. The cDNA coding for 17-mer peptides was cloned using the restriction sites HindIII and Acc65I, which also results in the secretion of the mature peptide. S. cerevisiae strains YAS1, YAS2, YAS3 were constructed by transforming CY12946 with Cp1584, Cp1584/Cp4181 and Cp1584/Cp4181/Cp6160, respectively.\nThe liquid beta-galactosidase assays were performed essentially as described in (24) or (27) with the following modification. After growth in the appropriate medium, 5 ml of cells displaying the agonist phenotype were centrifuged (2500 rpm for 5 min) and resuspended in 0.5 ml as described (28).\nTo identify allosteric peptide agonists or modulators of CXCR4, it was necessary to establish an assay that could isolate molecules with the desired properties from a large peptide library. The screen that was used consisted of two steps. The first step was to isolate peptide sequences from a synthetic cDNA library that would allow cells to grow only after activation of CXCR4. A second step was required that would segregate agonists that bind to the native active site from those that bind to allosteric sites. This step involved an agonist assay in the presence of a receptor antagonist. A number of genetic modifications made to S. cerevisiae allowed it to be used for monitoring the interactions of peptides or proteins with CXCR4 (FIG. 1). […]"}, "CXCR4 [3]": {"molecular_target": "T1, CXCR4", "experiment": "Yeast growth / colony formation in histidine-deficient medium (FUS1-HIS3)", "assay_type": "cell-based", "parameters": "The plasmid Cp4181 contains the CXCR4 gene under the control of the constitutive phosphoglycerate kinase (PGK1) promoter; expressed in transfected cells; host or cells: Saccharomyces cerevisiae CY12946 derivatives YAS2 / YAS3 (plasmid Cp4181)", "description": "All basic media were prepared essentially as described (24). In cases where plasmid selection was necessary, media that lacked uracil, leucine, or tryptophan or an appropriate combination of these nutrients were employed. Library screening was performed in plates that lacked histidine and contained 3-amino-1,2,4-triazole (Sigma), which suppresses the basal level of histidine biosynthesis due to the activity of the FUS1 promoter.\nA number of genes for biosynthetic enzymes have been mutated to allow selection of the corresponding marker on a plasmid transformed into the yeast strain. The genomic HIS3 gene, coding for an enzyme essential for the biosynthesis of histidine, has been disrupted by an insertion. The wild-type HIS3 gene has been placed under the control of the pheromone-responsive FUS1 promoter; as a result activation of CXCR4 enables cells to grow in media lacking histidine. To reduce false positives due to any basal activity of FUS1-HIS3,3-amino-1,2,4-triazole, an inhibitor of the enzyme coded by HIS3, is present at low levels in the media during agonist selection. […] Furthermore, the CXCR4 antagonist AMD3100 (34) inhibited YAS2 colony formation (data not shown) and β-galactosidase activity in response to SDF-1α (FIG. 2C)."}, "CXCR4 [4]": {"molecular_target": "T1, CXCR4", "conditions": "reference (31); cited from earlier work"}, "CXCR4 [5]": {"molecular_target": "T1, CXCR4", "experiment": "Flow cytometry of CXCR4 surface levels (12G5 indirect staining)", "assay_type": "cell-based", "description": "Flow cytometric analysis of cell subpopulations was performed using a FACS Vantage flow cytometer (Becton-Dickinson Immunocytometry Systems, San Jose, Calif.) for detection of CXCR4 surface expression with the 12G5 monoclonal antibody. An indirect staining protocol was used. Briefly, after a 90 min incubation with various agents, the cells were washed and resuspended in PBS. Nonspecific (Fc-mediated) binding was blocked using purified rat IgG. The primary antibody (12G5, a mouse IgG2a antibody) was added at 1 μg/ml for 45 min. After centrifugation the cells were resuspended in PBS and the secondary antibody (FITC-linked rat anti-mouse IgG2a) was added at 10 μg/ml for 45 min. The cells were fixed with 2% formaldehyde (in PBS) and used within 2 days for data acquisition. Mouse IgG2a was used as an isotype control. For the fluorescence measurements the cells were excited at 488 nm. The FITC fluorescence was collected through a 530/30 nm band pass filter. A minimum of 15,000 cells were examined for each sample. Analysis of data was performed using the CellQuest software (Becton-Dickinson)."}, "CCRF-CEM cells": {"test_system": "CCRF-CEM cells", "experiment": "Chemotaxis assay (transwell) on CCRF-CEM cells", "assay_type": "cell-based, human", "description": "The CCRF-CEM acute lymphoblastic leukemia cell line was previously shown to express CXCR4 and to migrate in response to SDF-1α (31). The procedure involved cells that were ˜70-80% confluent and were centrifuged at 1000 rpm for 5 min and resuspended at a concentration of ˜10^7 cells/ml. The transwell system (Corning-Costar^R) was used for quantifying the chemotactic response. Six hundred μl of solution with different concentrations of a CXCR4 agonist were added to the bottom of the wells of 24-well culture plates. One hundred μl of the cell suspension was aliquoted in the transwell cups and inserted in the wells. The bottom of the cups is layered with a membrane that has a 5 μm pore size and allows cell movement towards the higher concentration of chemoattractant. The cells were incubated for 2h at 37° C., after which the migrated cells were collected and counted with an electronic particle counter (Coulter^R). In cases where the effect of neutralization by CXCR4 monoclonal antibodies or antagonists was examined, the inhibitor was added to the upper compartment along with the cells."}, "HIV-1": {"test_system": "HIV-1", "conditions": "in vitro; reference (58); cited from earlier work"}, "[6]": {"conditions": "references (55), (56); cited from earlier work"}},
  "note": "Where a SMILES comes first, the peptide text is derived from it.",
  "data": [
    {"compound": "SDF-1α", "values": [
      {"measurement": "response of strain without the receptor (YAS 1)", "setting": "CXCR4 [1]", "result": "does not respond"},
      {"measurement": "induction of β-galactosidase activity", "setting": "CXCR4 [2]; HIS3-/CXCR4+ yeast with FUS1-lacZ, SDF-1α 100 nM, D-SDF-1α 100 nM, 14-mer 1 μM (FIG. 2B)", "result": "induces an increase of β-galactosidase activity"},
      {"measurement": "growth in the absence of histidine", "setting": "CXCR4 [3]; endogenously expressed SDF-1α, strain expressing CXCR4 (FIG. 2A)", "result": "allows the strain expressing CXCR4 to grow in the absence of this amino acid"},
      {"measurement": "EC50", "setting": "CXCR4 [4]", "result": "1 to 10", "unit": "nM"}
    ]},
    {"compound": "CC(C)C[C@H](NC(=O)[C@H](CO)NC(=O)[C@H](C)N)C(=O)N[C@@H](Cc1c[nH]c2ccccc12)C(=O)N[C@@H](CC(C)C)C(=O)N[C@@H](CO)C(=O)N[C@@H](Cc1ccc(O)cc1)C(=O)N[C@@H](CCCNC(=N)N)C(=O)N[C@@H](CS)C(=O)N1CCC[C@H]1C(=O)N[C@@H](CS)C(=O)N[C@@H](CCCNC(=N)N)C(=O)N[C@@H](Cc1ccccc1)C(=O)N[C@@H](Cc1ccccc1)C(=O)N[C@@H](CCC(=O)O)C(=O)N[C@@H](CO)C(=O)N[C@@H](Cc1c[nH]cn1)C(=O)O", "note": "[ASLW] (H-ASLWLSYRCPCRFFESH-OH; N-terminus and C-terminus assumed)", "values": [
      {"measurement": "effect on CXCR4 levels on the cell surface", "setting": "CXCR4 [5]; 90 min incubation, SDF-Fc 1 μM, RSVM 200 μM, ASLW 100 μM (FIG. 8A-C)", "result": "only aminor decrease"},
      {"measurement": "concentration dependence of the effect on CXCR4 surface levels", "setting": "CXCR4 [5]; FIG. 8D, 8E", "result": "No significant concentration-dependent response"},
      {"measurement": "resistance of β-galactosidase activity to AMD3100", "setting": "CXCR4 [2]; peptide-expressing yeast clones", "result": "resistance to AMD3100"},
      {"measurement": "β-galactosidase activity on endogenous expression of the peptide", "setting": "CXCR4 [2]; yeast strains with or without CXCR4 (FIG. 3)", "result": "significant increase of β-galactosidase activity only in the strain that co-expresses CXCR4"},
      {"measurement": "agonist character in chemotaxis (chemotactic index relative to SDF-Fc)", "setting": "CCRF-CEM cells; CCRF-CEM cells", "result": "superagonist activity"},
      {"measurement": "EC50", "setting": "CCRF-CEM cells; CCRF-CEM cells (FIG. 4A, 4B), read-out: apparent EC50, chemotaxis", "result": "> 60000", "unit": "nM"},
      {"measurement": "chemotactic activity combined with SDF-Fc", "setting": "CCRF-CEM cells; CCRF-CEM cells (FIG. 4D)", "result": "approximately additive"},
      {"measurement": "chemotaxis in the presence of the two peptide agonists ASLW and RSVM", "setting": "CCRF-CEM cells; CCRF-CEM cells (FIG. 4E)", "result": "additive"},
      {"measurement": "effect of AMD3100 on chemotactic activity of the agonist", "setting": "CCRF-CEM cells; CCRF-CEM cells, AMD3100 up to 100 μg/ml (~115 μM)", "result": "Strong resistance to inhibition"},
      {"measurement": "effect of T140 on chemotactic activity of the agonist", "setting": "CCRF-CEM cells; CCRF-CEM cells, T140 up to concentrations comparable to the agonists", "result": "does not inhibit"},
      {"measurement": "effect of antibody 44717.111 on chemotactic activity of the agonist", "setting": "CCRF-CEM cells; CCRF-CEM cells, up to 50 μg/ml for the peptides, ten-fold lower for SDF-Fc", "result": "neither RSVM- nor ASLW-mediated chemotactic activity is significantly affected"}
    ]},
    {"compound": "c1cc(CN2CCCNCCNCCCNCC2)ccc1CN1CCCNCCNCCCNCC1", "note": "[AMD3100, reference compound]", "values": [
      {"measurement": "interaction between T-20 and AMD3100", "setting": "HIV-1", "result": "strong in vitro synergy"},
      {"measurement": "effect on basal level of the pheromone-responsive Fus1 promoter", "setting": "CXCR4 [2]; AMD3100 1 μM (FIG. 2C)", "result": "does not effect the basal level"},
      {"measurement": "inhibition of β-galactosidase activity in response to SDF-1α", "setting": "CXCR4 [2]; AMD3100 1 μM, SDF-1α 100 nM (FIG. 2C)", "result": "inhibited"},
      {"measurement": "YAS2 colony formation", "setting": "CXCR4 [3]; in response to SDF-1α, data not shown", "result": "inhibited"},
      {"measurement": "toxicity / adverse effects in clinical trials", "setting": "[6]", "result": "cardiac toxicity"}
    ]}
  ]
}
